{"source": "patent US10870832B2", "about": "“Use of small molecules to enhance MAFA expression in pancreatic endocrine cells” (Janssen Biotech, Inc., priority 2014, dated 2020)", "test_in_all_cases": "Kinase profiling of R428", "format_in_all_cases": "biochemical", "key": {"Aurora-B(h)": {"molecular_target": "Aurora-B(h) (Homo sapiens, UniProt Q96GD4)", "sequence (Q96GD4 whole entry)": "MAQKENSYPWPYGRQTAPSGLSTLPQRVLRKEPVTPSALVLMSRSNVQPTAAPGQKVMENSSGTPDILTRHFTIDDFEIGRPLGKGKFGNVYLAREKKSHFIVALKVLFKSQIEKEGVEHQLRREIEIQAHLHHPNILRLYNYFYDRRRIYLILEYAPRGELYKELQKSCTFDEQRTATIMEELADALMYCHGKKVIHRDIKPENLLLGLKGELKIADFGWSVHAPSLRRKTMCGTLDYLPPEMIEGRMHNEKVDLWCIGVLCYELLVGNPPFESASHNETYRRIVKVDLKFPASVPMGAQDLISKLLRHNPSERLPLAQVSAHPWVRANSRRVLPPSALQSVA", "conditions": "for efficiency in targeting Aurora-B(h): 100 μM ATP, lower number = more robust inhibition", "experimental": "(§1) The efficiency of the AXL inhibitor R428 for targeting different kinases was assessed by Kinase Profiling Services using 100 μM ATP concentration (EMD Millipore). R428 was tested at 1 and 10 μM. Table IV lists the kinases profiled along with the efficiency in targeting the kinases with a lower number indicating a more robust inhibition of a particular kinase."}, "Blk(h)": {"molecular_target": "Blk(h) (Homo sapiens, UniProt P51451)", "conditions": "100 μM ATP, lower number = more robust inhibition", "experimental": "as §1"}, "CDK5/p35(h)": {"molecular_target": "CDK5/p35(h) (Homo sapiens, UniProt Q00535)", "conditions": "100 μM ATP, lower number = more robust inhibition", "experimental": "as §1"}, "CHK2(h)": {"molecular_target": "CHK2(h) (Homo sapiens, UniProt O96017)", "conditions": "100 μM ATP, lower number = more robust inhibition", "experimental": "as §1"}, "CK2(h)": {"molecular_target": "CK2(h) (Homo sapiens, UniProt P68400)", "conditions": "100 μM ATP, lower number = more robust inhibition", "experimental": "as §1"}, "CaMKIδ(h)": {"molecular_target": "CaMKIδ(h) (Homo sapiens, UniProt Q8IU85)", "sequence (Q8IU85 whole entry)": "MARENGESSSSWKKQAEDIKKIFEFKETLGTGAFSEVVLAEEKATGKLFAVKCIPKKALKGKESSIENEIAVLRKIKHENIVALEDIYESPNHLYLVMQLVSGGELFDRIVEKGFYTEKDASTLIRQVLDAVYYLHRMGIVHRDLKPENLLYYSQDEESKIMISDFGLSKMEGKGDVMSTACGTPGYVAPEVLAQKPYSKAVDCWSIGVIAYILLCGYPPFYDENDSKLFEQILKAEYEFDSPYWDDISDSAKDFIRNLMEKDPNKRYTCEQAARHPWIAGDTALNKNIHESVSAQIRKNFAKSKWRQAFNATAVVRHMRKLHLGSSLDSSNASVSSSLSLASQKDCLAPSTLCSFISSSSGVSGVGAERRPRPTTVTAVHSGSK", "conditions": "100 μM ATP, lower number = more robust inhibition", "experimental": "as §1"}, "Eph A 2(h)": {"molecular_target": "Eph A 2(h) (Homo sapiens, UniProt P29317)", "conditions": "100 μM ATP, lower number = more robust inhibition", "experimental": "as §1"}, "FGFR1(h)": {"molecular_target": "FGFR1(h) (Homo sapiens, UniProt P11362)", "sequence (P11362 22-822)": "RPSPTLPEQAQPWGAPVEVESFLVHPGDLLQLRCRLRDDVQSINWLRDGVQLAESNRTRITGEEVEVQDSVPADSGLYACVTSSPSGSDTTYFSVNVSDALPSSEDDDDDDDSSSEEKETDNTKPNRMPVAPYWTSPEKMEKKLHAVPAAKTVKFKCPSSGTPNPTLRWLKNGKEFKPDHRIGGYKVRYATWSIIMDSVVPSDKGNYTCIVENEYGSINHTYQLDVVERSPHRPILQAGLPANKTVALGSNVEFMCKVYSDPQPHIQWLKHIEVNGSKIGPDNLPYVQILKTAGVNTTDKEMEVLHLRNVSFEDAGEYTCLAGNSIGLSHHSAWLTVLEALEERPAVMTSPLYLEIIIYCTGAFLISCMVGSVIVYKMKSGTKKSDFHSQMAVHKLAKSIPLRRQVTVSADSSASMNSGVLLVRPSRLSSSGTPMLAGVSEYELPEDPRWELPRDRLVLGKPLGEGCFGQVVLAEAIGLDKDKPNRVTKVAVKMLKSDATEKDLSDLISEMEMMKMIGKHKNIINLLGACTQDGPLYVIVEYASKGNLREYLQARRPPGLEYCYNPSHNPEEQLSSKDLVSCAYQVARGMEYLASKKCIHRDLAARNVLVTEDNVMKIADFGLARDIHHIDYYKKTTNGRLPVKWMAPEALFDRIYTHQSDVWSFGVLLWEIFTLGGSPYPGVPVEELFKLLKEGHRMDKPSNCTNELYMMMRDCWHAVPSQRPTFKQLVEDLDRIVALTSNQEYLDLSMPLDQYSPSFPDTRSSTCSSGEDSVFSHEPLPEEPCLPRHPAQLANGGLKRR", "conditions": "for efficiency in targeting FGFR1(h): 100 μM ATP, lower number = more robust inhibition", "experimental": "as §1"}, "Flt3(h)": {"molecular_target": "T1, Flt3(h) (Homo sapiens, UniProt P36888)", "T1 sequence (P36888 27-993)": "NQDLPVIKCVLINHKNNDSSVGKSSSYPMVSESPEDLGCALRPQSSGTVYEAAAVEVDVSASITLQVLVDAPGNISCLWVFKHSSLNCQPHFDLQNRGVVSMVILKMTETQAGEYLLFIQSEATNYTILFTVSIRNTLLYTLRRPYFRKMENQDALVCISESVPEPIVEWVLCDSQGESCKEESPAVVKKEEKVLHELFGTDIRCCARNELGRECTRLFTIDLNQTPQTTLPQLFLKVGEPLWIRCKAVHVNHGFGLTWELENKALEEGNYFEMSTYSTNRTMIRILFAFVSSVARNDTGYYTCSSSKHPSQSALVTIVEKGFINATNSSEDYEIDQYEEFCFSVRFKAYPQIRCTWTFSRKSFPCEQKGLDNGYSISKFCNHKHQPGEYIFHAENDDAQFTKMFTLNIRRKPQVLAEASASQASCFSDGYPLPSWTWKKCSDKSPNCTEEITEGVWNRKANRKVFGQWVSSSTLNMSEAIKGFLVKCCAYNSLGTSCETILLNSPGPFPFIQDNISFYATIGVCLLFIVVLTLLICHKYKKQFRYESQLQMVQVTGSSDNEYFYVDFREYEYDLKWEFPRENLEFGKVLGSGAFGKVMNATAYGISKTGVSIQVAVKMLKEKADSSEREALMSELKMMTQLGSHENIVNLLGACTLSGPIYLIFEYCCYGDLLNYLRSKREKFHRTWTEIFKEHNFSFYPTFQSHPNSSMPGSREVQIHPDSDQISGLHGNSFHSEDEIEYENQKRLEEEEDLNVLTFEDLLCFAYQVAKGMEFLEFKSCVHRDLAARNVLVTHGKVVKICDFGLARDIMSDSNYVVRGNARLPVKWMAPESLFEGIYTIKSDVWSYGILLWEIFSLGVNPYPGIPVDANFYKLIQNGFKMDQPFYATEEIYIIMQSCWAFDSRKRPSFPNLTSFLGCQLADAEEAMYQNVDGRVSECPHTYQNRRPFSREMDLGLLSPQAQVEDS", "conditions": "for efficiency in targeting Flt3(h): 100 μM ATP, lower number = more robust inhibition", "experimental": "as §1"}, "GSK313(h)": {"molecular_target": "GSK313(h) (Homo sapiens, UniProt P49841)", "conditions": "100 μM ATP, lower number = more robust inhibition", "experimental": "as §1"}, "JAK2(h)": {"molecular_target": "JAK2(h) (Homo sapiens, UniProt O60674)", "conditions": "100 μM ATP, lower number = more robust inhibition", "experimental": "as §1"}, "JAK3(h)": {"molecular_target": "JAK3(h) (Homo sapiens, UniProt P52333)", "sequence (P52333 whole entry)": "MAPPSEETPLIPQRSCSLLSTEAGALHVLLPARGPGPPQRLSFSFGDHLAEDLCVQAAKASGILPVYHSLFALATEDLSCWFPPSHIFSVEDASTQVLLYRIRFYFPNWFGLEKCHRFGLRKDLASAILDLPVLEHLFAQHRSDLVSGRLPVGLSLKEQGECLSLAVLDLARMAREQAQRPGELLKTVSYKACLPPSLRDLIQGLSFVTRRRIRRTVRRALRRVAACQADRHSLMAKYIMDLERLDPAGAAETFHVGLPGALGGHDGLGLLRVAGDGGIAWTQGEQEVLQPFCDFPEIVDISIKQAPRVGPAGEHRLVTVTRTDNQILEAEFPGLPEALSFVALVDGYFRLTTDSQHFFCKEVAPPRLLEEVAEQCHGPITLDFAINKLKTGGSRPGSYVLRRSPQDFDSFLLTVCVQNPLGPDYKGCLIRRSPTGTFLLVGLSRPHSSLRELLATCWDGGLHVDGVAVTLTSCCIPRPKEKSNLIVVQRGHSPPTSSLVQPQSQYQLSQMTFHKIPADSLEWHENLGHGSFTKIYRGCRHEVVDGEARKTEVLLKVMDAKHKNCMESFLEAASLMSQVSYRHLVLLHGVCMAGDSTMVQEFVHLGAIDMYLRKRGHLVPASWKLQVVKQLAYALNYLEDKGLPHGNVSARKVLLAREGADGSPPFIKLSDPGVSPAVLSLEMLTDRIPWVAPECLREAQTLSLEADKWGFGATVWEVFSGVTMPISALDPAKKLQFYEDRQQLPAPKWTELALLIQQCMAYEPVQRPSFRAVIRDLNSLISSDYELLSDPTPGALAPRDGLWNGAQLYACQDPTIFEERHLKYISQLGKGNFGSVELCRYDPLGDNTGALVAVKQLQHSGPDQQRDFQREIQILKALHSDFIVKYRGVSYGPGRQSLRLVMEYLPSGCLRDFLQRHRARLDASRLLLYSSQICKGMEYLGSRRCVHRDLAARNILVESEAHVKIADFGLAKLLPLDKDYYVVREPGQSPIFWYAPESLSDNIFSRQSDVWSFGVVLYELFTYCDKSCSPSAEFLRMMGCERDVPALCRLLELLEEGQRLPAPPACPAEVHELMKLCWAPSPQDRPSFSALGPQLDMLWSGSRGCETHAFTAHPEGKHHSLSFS", "conditions": "100 μM ATP, lower number = more robust inhibition", "experimental": "as §1"}, "MAPK1(h)": {"molecular_target": "MAPK1(h) (Homo sapiens, UniProt P27361)", "sequence (P27361 2-379 limits assumed)": "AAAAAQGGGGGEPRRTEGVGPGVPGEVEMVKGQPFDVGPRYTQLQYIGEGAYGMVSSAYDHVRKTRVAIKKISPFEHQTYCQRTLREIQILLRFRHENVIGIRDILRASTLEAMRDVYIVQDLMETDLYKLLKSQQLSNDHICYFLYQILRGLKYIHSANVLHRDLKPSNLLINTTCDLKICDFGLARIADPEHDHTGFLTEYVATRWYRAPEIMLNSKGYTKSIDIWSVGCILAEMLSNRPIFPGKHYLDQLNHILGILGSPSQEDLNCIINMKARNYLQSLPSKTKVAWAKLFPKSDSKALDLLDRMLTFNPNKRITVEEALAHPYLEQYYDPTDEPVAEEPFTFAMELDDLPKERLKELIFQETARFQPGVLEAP", "conditions": "100 μM ATP, lower number = more robust inhibition", "experimental": "as §1"}, "PKA(h)": {"molecular_target": "PKA(h) (Homo sapiens, UniProt P17612)", "conditions": "100 μM ATP, lower number = more robust inhibition", "experimental": "as §1"}, "Plk3(h)": {"molecular_target": "Plk3(h) (Homo sapiens, UniProt Q9H4B4)", "conditions": "100 μM ATP, lower number = more robust inhibition", "experimental": "as §1"}, "ROCK-1(h)": {"molecular_target": "ROCK-1(h) (Homo sapiens, UniProt Q13464)", "conditions": "100 μM ATP, lower number = more robust inhibition", "experimental": "as §1"}, "Rsk3(h)": {"molecular_target": "Rsk3(h) (Homo sapiens, UniProt Q15349)", "sequence (Q15349 whole entry)": "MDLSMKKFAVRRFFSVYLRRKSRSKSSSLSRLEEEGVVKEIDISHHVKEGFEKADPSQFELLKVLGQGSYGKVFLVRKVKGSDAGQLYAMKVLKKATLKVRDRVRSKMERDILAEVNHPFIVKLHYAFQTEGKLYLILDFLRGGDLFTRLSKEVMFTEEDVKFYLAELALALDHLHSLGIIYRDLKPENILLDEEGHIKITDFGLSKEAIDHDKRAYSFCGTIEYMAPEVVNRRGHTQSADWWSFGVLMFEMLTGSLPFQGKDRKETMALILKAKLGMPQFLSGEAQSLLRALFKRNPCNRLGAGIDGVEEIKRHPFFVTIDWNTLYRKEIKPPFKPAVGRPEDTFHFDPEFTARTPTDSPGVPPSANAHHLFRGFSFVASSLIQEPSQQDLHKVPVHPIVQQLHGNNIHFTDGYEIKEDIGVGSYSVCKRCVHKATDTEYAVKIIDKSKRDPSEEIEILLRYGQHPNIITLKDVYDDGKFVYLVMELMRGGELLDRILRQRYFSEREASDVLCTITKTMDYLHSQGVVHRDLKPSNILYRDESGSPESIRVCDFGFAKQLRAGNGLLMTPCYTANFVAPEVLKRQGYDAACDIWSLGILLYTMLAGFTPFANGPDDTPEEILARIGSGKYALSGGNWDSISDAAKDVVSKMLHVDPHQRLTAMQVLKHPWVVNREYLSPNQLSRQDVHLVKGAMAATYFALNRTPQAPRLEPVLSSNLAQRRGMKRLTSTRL", "conditions": "for efficiency in targeting Rsk3(h): 100 μM ATP, lower number = more robust inhibition", "experimental": "as §1"}, "TGEBR1(h)": {"molecular_target": "TGEBR1(h) (Homo sapiens, UniProt P36897)", "sequence (P36897 34-503)": "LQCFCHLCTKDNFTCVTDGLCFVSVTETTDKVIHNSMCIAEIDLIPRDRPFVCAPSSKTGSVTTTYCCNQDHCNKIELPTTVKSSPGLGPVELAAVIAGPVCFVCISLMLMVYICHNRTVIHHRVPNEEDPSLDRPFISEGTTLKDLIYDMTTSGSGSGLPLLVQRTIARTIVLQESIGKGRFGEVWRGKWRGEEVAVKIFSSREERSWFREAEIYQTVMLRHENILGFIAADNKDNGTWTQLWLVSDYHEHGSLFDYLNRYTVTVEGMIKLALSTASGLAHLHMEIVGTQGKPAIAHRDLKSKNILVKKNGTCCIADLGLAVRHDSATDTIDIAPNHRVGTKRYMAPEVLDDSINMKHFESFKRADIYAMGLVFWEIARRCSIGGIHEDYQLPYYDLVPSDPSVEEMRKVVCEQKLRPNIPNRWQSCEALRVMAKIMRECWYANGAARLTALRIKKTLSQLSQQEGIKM", "conditions": "100 μM ATP, lower number = more robust inhibition", "experimental": "as §1"}, "ZAP-70(h)": {"molecular_target": "ZAP-70(h) (Homo sapiens, UniProt P43403)", "conditions": "100 μM ATP, lower number = more robust inhibition", "experimental": "as §1"}, "cSRC(h)": {"molecular_target": "cSRC(h) (Homo sapiens, UniProt P12931)", "sequence (P12931 whole entry)": "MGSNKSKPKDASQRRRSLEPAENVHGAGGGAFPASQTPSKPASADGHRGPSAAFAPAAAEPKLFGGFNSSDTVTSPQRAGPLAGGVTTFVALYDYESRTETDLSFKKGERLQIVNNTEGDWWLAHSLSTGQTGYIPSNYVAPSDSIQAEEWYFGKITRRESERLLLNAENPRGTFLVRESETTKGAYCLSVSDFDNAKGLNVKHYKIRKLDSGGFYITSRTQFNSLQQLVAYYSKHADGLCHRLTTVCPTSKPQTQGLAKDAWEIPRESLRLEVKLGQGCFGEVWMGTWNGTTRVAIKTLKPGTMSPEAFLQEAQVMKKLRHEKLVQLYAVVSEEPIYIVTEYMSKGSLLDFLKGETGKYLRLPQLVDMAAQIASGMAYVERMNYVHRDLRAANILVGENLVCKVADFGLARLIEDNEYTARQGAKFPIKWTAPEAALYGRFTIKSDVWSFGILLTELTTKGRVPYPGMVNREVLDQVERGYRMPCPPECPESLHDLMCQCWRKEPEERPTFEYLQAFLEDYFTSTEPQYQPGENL", "conditions": "100 μM ATP, lower number = more robust inhibition", "experimental": "as §1"}}}
{"smiles": "Nc1nc(Nc2ccc3c(c2)CC[C@@H](N2CCCC2)CC3)nn1-c1cc2c(nn1)-c1ccccc1CCC2", "note": "[R428, 1H-1,2,4-Triazole-3,5-diamine, 1-(6,7-dihydro-5H-benzo[6,7]cyclohepta[1,2-c]pyridazin-3-yl) N3-[(7S)-6,7,8,9-tetrahydro-7-(1-pyrrolidinyl)-5H-benzocyclohepten-2-yl]-]", "values": [{"measurement": "efficiency in targeting Aurora-B(h)", "setting": "Aurora-B(h); R428 @ 1 μM", "result": 1}, {"measurement": "efficiency in targeting Aurora-B(h)", "setting": "Aurora-B(h); R428 @ 10 μM", "result": 0}, {"measurement": "inhibition of AuroraB (in words)", "setting": "Aurora-B(h); at 1 and 10 μM", "result": "potently inhibits"}, {"measurement": "efficiency in targeting Blk(h)", "setting": "Blk(h); R428 @ 1 μM", "result": 27}, {"measurement": "efficiency in targeting Blk(h)", "setting": "Blk(h); R428 @ 10 μM", "result": 2}, {"measurement": "efficiency in targeting CDK5/p35(h)", "setting": "CDK5/p35(h); R428 @ 1 μM", "result": 101}, {"measurement": "efficiency in targeting CDK5/p35(h)", "setting": "CDK5/p35(h); R428 @ 10 μM", "result": 94}, {"measurement": "efficiency in targeting CHK2(h)", "setting": "CHK2(h); R428 @ 1 μM", "result": 47}, {"measurement": "efficiency in targeting CHK2(h)", "setting": "CHK2(h); R428 @ 10 μM", "result": 9}, {"measurement": "efficiency in targeting CK2(h)", "setting": "CK2(h); R428 @ 1 μM", "result": 103}, {"measurement": "efficiency in targeting CK2(h)", "setting": "CK2(h); R428 @ 10 μM", "result": 106}, {"measurement": "efficiency in targeting CaMKIδ(h)", "setting": "CaMKIδ(h); R428 @ 1 μM", "result": 76}, {"measurement": "efficiency in targeting CaMKIδ(h)", "setting": "CaMKIδ(h); R428 @ 10 μM", "result": 24}, {"measurement": "efficiency in targeting Eph A 2(h)", "setting": "Eph A 2(h); R428 @ 1 μM", "result": 54}, {"measurement": "efficiency in targeting Eph A 2(h)", "setting": "Eph A 2(h); R428 @ 10 μM", "result": 12}, {"measurement": "efficiency in targeting FGFR1(h)", "setting": "FGFR1(h); R428 @ 1 μM", "result": 17}, {"measurement": "efficiency in targeting FGFR1(h)", "setting": "FGFR1(h); R428 @ 10 μM", "result": 1}, {"measurement": "inhibition of FGFr1 (in words)", "setting": "FGFR1(h); at 1 and 10 μM", "result": "potently inhibits"}, {"measurement": "efficiency in targeting Flt3(h)", "setting": "Flt3(h); R428 @ 1 μM", "result": 9}, {"measurement": "efficiency in targeting Flt3(h)", "setting": "Flt3(h); R428 @ 10 μM", "result": 1}, {"measurement": "inhibition of Flt (in words)", "setting": "Flt3(h); at 1 and 10 μM", "result": "potently inhibits"}, {"measurement": "efficiency in targeting GSK313(h)", "setting": "GSK313(h); R428 @ 1 μM", "result": 106}, {"measurement": "efficiency in targeting GSK313(h)", "setting": "GSK313(h); R428 @ 10 μM", "result": 99}, {"measurement": "efficiency in targeting JAK2(h)", "setting": "JAK2(h); R428 @ 1 μM", "result": 96}, {"measurement": "efficiency in targeting JAK2(h)", "setting": "JAK2(h); R428 @ 10 μM", "result": 41}, {"measurement": "efficiency in targeting JAK3(h)", "setting": "JAK3(h); R428 @ 1 μM", "result": 69}, {"measurement": "efficiency in targeting JAK3(h)", "setting": "JAK3(h); R428 @ 10 μM", "result": 18}, {"measurement": "efficiency in targeting MAPK1(h)", "setting": "MAPK1(h); R428 @ 1 μM", "result": 108}, {"measurement": "efficiency in targeting MAPK1(h)", "setting": "MAPK1(h); R428 @ 10 μM", "result": 106}, {"measurement": "efficiency in targeting PKA(h)", "setting": "PKA(h); R428 @ 1 μM", "result": 88}, {"measurement": "efficiency in targeting PKA(h)", "setting": "PKA(h); R428 @ 10 μM", "result": 35}, {"measurement": "efficiency in targeting Plk3(h)", "setting": "Plk3(h); R428 @ 1 μM", "result": 101}, {"measurement": "efficiency in targeting Plk3(h)", "setting": "Plk3(h); R428 @ 10 μM", "result": 81}, {"measurement": "efficiency in targeting ROCK-1(h)", "setting": "ROCK-1(h); R428 @ 1 μM", "result": 93}, {"measurement": "efficiency in targeting ROCK-1(h)", "setting": "ROCK-1(h); R428 @ 10 μM", "result": 41}, {"measurement": "efficiency in targeting Rsk3(h)", "setting": "Rsk3(h); R428 @ 1 μM", "result": 2}, {"measurement": "efficiency in targeting Rsk3(h)", "setting": "Rsk3(h); R428 @ 10 μM", "result": 1}, {"measurement": "inhibition of RSK3 (in words)", "setting": "Rsk3(h); at 1 and 10 μM", "result": "potently inhibits"}, {"measurement": "efficiency in targeting TGEBR1(h)", "setting": "TGEBR1(h); R428 @ 1 μM", "result": 97}, {"measurement": "efficiency in targeting TGEBR1(h)", "setting": "TGEBR1(h); R428 @ 10 μM", "result": 69}, {"measurement": "efficiency in targeting ZAP-70(h)", "setting": "ZAP-70(h); R428 @ 1 μM", "result": 92}, {"measurement": "efficiency in targeting ZAP-70(h)", "setting": "ZAP-70(h); R428 @ 10 μM", "result": 66}, {"measurement": "efficiency in targeting cSRC(h)", "setting": "cSRC(h); R428 @ 1 μM", "result": 51}, {"measurement": "efficiency in targeting cSRC(h)", "setting": "cSRC(h); R428 @ 10 μM", "result": 10}]}
